From US11156599B2, “Assay for telomere length regulators” (The Johns Hopkins University, priority 2015, dated 2021)

Experiments:
[1] = test system: ATM kinase-dependent signaling pathway (Kap1-S824 phosphorylation); experiment: Western blot of phosphorylated Kap1 (ATM substrate); assay type: cell-based, mouse
Text: Having established the robust ADDIT assay that can measure telomere elongation over one cell cycle, it was desired to examine whether the ATM kinase activity is required for telomere elongation. Two different methods were used to inhibit ATM: the ATM specific inhibitor KU55933 and siRNA knockdown. To confirm the inhibition of ATM kinase activity, the phosphorylation level of ATM substrate Kap1 as well as ATR kinase substrate Chk1 was examined by western blot. Cultured cells were pretreated with KU55933, siATM or DMSO control and later exposed to a DNA damaging reagent Camptothecin (CPT).
To detect phospho-proteins, 1× lysis buffer made of final concentration of 1× RIPA (Cell Signaling, #98016S), 1× protease inhibitor cocktail, 1× PhosSTOP™ (Roche, #4906845001) was added directly to cells on the dish after washing with cold 1× PBS. Protein concentration was measured with a BCA protein assay kit (Thermo, #23227). Typically 10 μg of protein from each sample was applied to SDS-PAGE gels, 4-15% Mini-PROTEAN TGX™ gels (Biorad, #456-1084), and transferred to nitrocellulose membranes in transfer buffer. […] Band intensities were quantified using the Odyssey™ software (LI-COR) and normalized to Actin levels. […]

[2] = test system: de novo telomere addition on chr4 in SL13 cells; experiment: ADDIT assay (Addition of de novo initiated telomeres): modified STELA PCR and PacBio sequencing; assay type: cell-based, mouse; details: for de novo telomere addition compared to DMSO control: cells treated with DMSO, KU55933, Olaparib or both drugs
Text: To examine potential mammalian genes that regulate telomere length, an assay was developed that allows visualization of telomere addition in vivo, referred here as ADDIT (Addition of de novo initiated telomeres). In a chromosomally stable CASTEiJ mouse fibroblast cell line, chromosome 4 (chr4) was modified to generate an internal 480 bp telomere ‘seed’ sequence followed by a unique I-Sce1 endonuclease cut site (FIG. 1A). The length of seed sequence was based on an early study showing that 400 bp of telomere repeats can act as functional telomeres. Using Southern blot analysis, two independent HYG-positive clones were identified, clone 1L and 1M, with a single chr4 allele correctly modified (data not shown).
To better visualize the telomere addition on the I-Sce1 cut telomere seed, the single telomere length analysis (STELA) (Baird et al., 2004, Hum Mol Genet 13, 1515-1524), a PCR-based approach that can measure telomere lengths from individual chromosome ends was modified. The STELA assay employs annealing and ligation of a linker, ‘telorette’, with TTAGGG and a unique 20-nucleotide sequence to the G-rich 3′ telomere overhang followed by PCR of the telomere from a ‘teltail’ primer and primer in the HYG sequence on the engineered chromosome (FIG. 2). The PCR product lengths will be proportional to the telomere lengths at the cleaved chr4 allele. As a control, to amplify the un-extended cut chromosome in vitro, a different linker, ‘IScerette’ was designed, which has a 4-nt homology to the 4-nt 3′ overhang created by the I-Sce1 endonuclease at the cleavage site (FIG. 2). […] This in vitro IScerette PCR product serves as a marker for the base line length of the cut, unextended telomere seed sequence.
To further verify the longer STELA PCR products represent de novo telomere addition, the PCR products were sequenced with Pacific Biosciences (PACBIO®) next generation sequencing technology. The PACBIO® platform produces longer reads and is less GC bias compared to other next generation sequencing platforms. While errors were present in the sequence as expected, the telomere repeats were easily recognizable. All of the reads from the PACBIO® were filtered and only those that had unique HYG sequence followed by telomere sequence and the ‘teltail’ primer sequence were examined. This assures that only full length of STELA PCR products were analyzed. The reads were then aligned at the junction between the HYG sequence and the telomere repeats. Wild-type TTAGGG repeats were colored orange and variant telomere repeats were colored in darker orange (FIG. 3A). Some of these variants arose due to errors in sequencing. An error rate similar to the published error rate of PACBIO® sequencing, 10-15% was observed. The errors were uniformly distributed over the reference sequence, dominated by point insertions and deletions, as expected for PACBIO® sequencing. There were three regions of divergent sequence in the original construct that are evident as darker orange stripes in the aligned reads (see for reference, in vitro IScelrette). These are small variation in TTAGGG sequence in the original SL13 clone and serve as useful internal reference points.
The original STELA protocol used for human cells (Baird et al., 2004, Hum Mol Genet 13, 1515-1524) was modified to measure telomere lengths on the de novo end of chr4 in SL13 cells. Briefly, genomic DNA was extracted using Puregene Core Kit A ^TM (Qiagen). 4 μg of genomic DNA was digested with SphI (NEB) and later diluted to 10 ng/μl in water. For the in vitro IScerette sample, genomic DNA was digested with SphI and I-SceI (NEB) prior to ligation. The ligation was carried out at 35° C. for at least 12 hrs in a volume of 10 μl containing 10 ng of digested genomic DNA, 0.9 μM of telorette linkers (mixture of telorette 1 to 6) or IScerette linker and 0.5 U of T4 DNA ligase (NEB) in 1× T4 ligation buffer. […]

Question: For `O=c1cc(-c2cccc3c2Sc2ccccc2S3)oc(N2CCOCC2)c1` [KU55933], which Kap1-S824 phosphorylation ([1]; pretreated, later exposed to Camptothecin (CPT), western blot) is on record?
Answer: blocked Kap1 phosphorylation

Question: And the “addition of de novo telomere repeats beyond the I-Sce1 site” value ([2]; 48 hrs doxycycline, 10 μM KU55933 or 5 nM siATM)?
Answer: fewer and significantly shorter elongation products

Question: What about the “de novo telomere addition compared to DMSO control” value ([2]; different STELA primers) of the same compound?
Answer: less de novo telomere addition compared to DMSO control

Question: What does the source list for `O=C(c1cc(Cc2n[nH]c(=O)c3ccccc23)ccc1F)N1CCN(C(=O)C2CC2)CC1` [Olaparib]?
Answer: increased level of Kap1 phosphorylation compared to DMSO-treated control cells ([1]; Olaparib treated cells): 5 fold; de novo telomere addition compared to DMSO control ([2]; different STELA primers): significantly higher percentage of de novo telomere addition; percentage of reads with telomere elongation ([2]; cells treated with Olaparib or both drugs, different STELA primers): 22.4%
